Article PMC9596378, “Discovery and molecular basis of subtype-selective cyclophilin inhibitors” (Nature Chemical Biology, 2022)
Several values for one entry are separate records, joined by “and”; a condition that tells them apart may be missing. Identical values can stand only once. Like-named read-outs stand apart in the source and are kept apart here.

How the values were obtained:
CypD = CypD (Homo sapiens, UniProt P30405); test: Chymotrypsin coupled prolyl-isomerase assay; conditions: for prolyl-isomerase activity (raw dose-response value): CypD
CypB = biological target: T1, CypB (Homo sapiens, UniProt P23284); test: biochemical; conditions: for prolyl-isomerase activity (raw dose-response value): CypB
T1 construct: PPIB (UniProtKB Entry P23284: residues 34–216); His6 with TEV site (2BT vector leader) (N); made in house; host or cells: E. coli BL21(DE3)
Method: (§1) Adapting a previously described protocol, with an Agilent Bravo Velocity 11 with a 384ST head, 90 µL assay buffer (25 mM HEPES pH 7.3, 100 mM NaCl, 0.01% Triton X-100) containing 5.28 nM cyclophilin was added into a flat, clear-bottom, black 384-well plate pre-chilled in a Corning CoolBox at 2–3 °C. Five microliters of compound pre-dissolved in 5% DMSO/assay buffer was then added to appropriate wells and incubated at 2–3 °C for 5 min. Five microliters of 0.5 mM α-chymotrypsin from bovine pancreas (Type II, lyophilized powder, Millipore-Sigma) in 20% 1 mM HCl/Assay Buffer was then added to each well and incubated at 2–3 °C for 5 min. The plate was then quickly transferred to a FLIPR Tetra High-Throughput Cellular Screening System (Molecular Devices). Using the internal liquid handling system of the FLIPR, 1 µL 0.5 mM Suc-AAPF-AMC (Chymotrypsin Substrate II, Millipore-Sigma) dissolved in 0.55 M LiCl/2,2,2-trifluoroethanol was added to each well, which was then mixed for 5 s, followed by immediate fluorescence measurements every 1 s for 330 s using a 360–380 nm excitation LED module and a 400–460 nm emission filter. Final concentrations of the plate include 5 nM cyclophilin, 0.25% DMSO, 25 µM α-chymotrypsin, 5 µM Suc-AAPF-AMC. Raw fluorescence data was analyzed by non-linear regression analysis with Prism v.9 by fitting one-phase association curves to each well. […] Rate constants calculated for each well (s^−1) were then normalized to substrate only (no prolyl-isomerase) and enzyme + substrate only controls. IC50 values were calculated as the value at which 50% inhibition was achieved on the non-linear regression fitted curve of each compound.

Cyp40 = Cyp40 (Homo sapiens, UniProt Q08752); test: Chymotrypsin coupled prolyl-isomerase assay; conditions: for prolyl-isomerase activity (raw dose-response value): in s^-1
Method: as §1

NKTR = biological target: T2, NKTR (Homo sapiens, UniProt P30414); test: Chymotrypsin coupled prolyl-isomerase assay; format: biochemical; conditions: for prolyl-isomerase activity (raw dose-response value): NKTR
T2 construct: NKTR (UniProtKB Entry P30414: residues 7–179); host or cells: E. coli BL21(DE3)
T2 sequence (P30414 7-179): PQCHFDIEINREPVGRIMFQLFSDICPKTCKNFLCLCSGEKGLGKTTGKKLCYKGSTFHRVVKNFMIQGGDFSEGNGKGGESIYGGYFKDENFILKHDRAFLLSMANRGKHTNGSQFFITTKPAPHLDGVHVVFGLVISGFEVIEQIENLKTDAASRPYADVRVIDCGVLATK

PPIL1 = biological target: T3, PPIL1 (Homo sapiens, UniProt Q9Y3C6); test: Chymotrypsin coupled prolyl-isomerase assay; format: biochemical
T3 construct: PPIL1 (UniProtKB Entry Q9Y3C6: residues 1–166); made in house; host or cells: E. coli BL21(DE3)
T3 sequence (Q9Y3C6 1-166): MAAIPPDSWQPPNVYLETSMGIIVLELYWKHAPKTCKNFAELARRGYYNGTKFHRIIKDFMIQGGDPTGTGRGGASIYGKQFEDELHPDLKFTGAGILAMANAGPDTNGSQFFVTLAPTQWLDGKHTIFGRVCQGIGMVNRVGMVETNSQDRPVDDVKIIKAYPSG

PPWD1 = biological target: T4, PPWD1 (Homo sapiens, UniProt Q96BP3); test: Chymotrypsin coupled prolyl-isomerase assay; format: biochemical; conditions: for prolyl-isomerase activity (raw dose-response value): in s^-1
T4 construct: PPWD1 (UniProtKB Entry Q96BP3: residues 473–646); host or cells: E. coli BL21(DE3)
T4 sequence (Q96BP3 473-646): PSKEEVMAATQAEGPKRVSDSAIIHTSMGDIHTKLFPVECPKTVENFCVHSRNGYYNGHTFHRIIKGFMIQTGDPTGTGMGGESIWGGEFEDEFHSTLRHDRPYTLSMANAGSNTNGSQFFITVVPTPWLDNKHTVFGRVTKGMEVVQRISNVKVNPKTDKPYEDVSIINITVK

Sequence of CypD (P30405 45-207): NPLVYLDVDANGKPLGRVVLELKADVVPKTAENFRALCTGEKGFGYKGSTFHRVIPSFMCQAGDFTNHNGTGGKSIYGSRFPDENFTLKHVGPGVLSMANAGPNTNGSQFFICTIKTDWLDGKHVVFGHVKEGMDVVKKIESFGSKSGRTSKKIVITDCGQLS
Sequence of Cyp40 (Q08752 1-183): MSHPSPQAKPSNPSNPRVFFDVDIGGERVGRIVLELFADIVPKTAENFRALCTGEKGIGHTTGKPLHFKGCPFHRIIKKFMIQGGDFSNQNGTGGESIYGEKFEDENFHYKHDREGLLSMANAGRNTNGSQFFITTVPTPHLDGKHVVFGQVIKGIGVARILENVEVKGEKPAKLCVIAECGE
T1 sequence (P23284 34-216): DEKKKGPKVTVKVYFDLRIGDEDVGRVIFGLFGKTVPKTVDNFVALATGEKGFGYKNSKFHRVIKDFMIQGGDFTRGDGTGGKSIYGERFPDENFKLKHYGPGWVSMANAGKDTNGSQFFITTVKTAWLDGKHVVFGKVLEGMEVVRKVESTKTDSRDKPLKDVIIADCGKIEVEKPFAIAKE

In the case of `NCCOCCNC(=O)[C@@H]1CCNC(=O)/C=C/C(=O)N2CCC[C@](Cc3ccccc3)(C2)C(=O)N[C@@H](Cc2ccc(-c3ccccc3)cc2)C(=O)NCc2ccccc2CC(=O)N1` [Compound B2], the IC50 (CypD) is reported as 0.18 µM, the “prolyl-isomerase activity (raw dose-response value)” value (shortened to “prolyl-isomerase activity”) (CypD; dose 0.0195312 µM) is reported as 0.1243 and 0.1374 and 0.1472 and the “prolyl-isomerase activity” value (CypD; dose 0.0390625 µM) is reported as 0.1094 and 0.1294 and 0.1367. The “prolyl-isomerase activity” value (CypD; dose 0.078125 µM) was 0.0906 and 0.1127 and 0.1064, the “prolyl-isomerase activity” value (CypD; dose 0.15625 µM) was 0.06823 and 0.08697 and 0.08033 and the “prolyl-isomerase activity” value (CypD; dose 0.3125 µM) was 0.0483 and 0.05915 and 0.05559. For the same molecule, the “prolyl-isomerase activity” value (CypD; dose 0.625 µM) was 0.03197 and 0.04004 and 0.03906, the “prolyl-isomerase activity” value (CypD; dose 1.25 µM) was 0.02117 and 0.02794 and 0.0263 and the “prolyl-isomerase activity” value (CypD; dose 2.5 µM) was 0.0143 and 0.01947 and 0.02017. The “prolyl-isomerase activity” value (CypD; dose 5 µM) was 0.01132 and 0.01248 and 0.01357, the “prolyl-isomerase activity” value (CypB; dose 0.00457247 µM) was 0.09192 and 0.1036 and 0.1252 and the “prolyl-isomerase activity” value (CypB; dose 0.0137174 µM) was 0.09377 and 0.09227 and 0.1138. The “prolyl-isomerase activity” value (CypB; dose 0.0411523 µM) was 0.08535 and 0.07571 and 0.07363, the “prolyl-isomerase activity” value (CypB; dose 0.123457 µM) was 0.076 and 0.06873 and 0.07349 and the “prolyl-isomerase activity” value (CypB; dose 0.37037 µM) was 0.05318 and 0.03953 and 0.04525. For the same molecule, the “prolyl-isomerase activity” value (CypB; dose 1.11111 µM) was 0.03174 and 0.02714 and 0.02735, the “prolyl-isomerase activity” value (CypB; dose 3.33333 µM) was 0.02002 and 0.01837 and 0.01843 and the “prolyl-isomerase activity” value (CypB; dose 10 µM) was 0.01579 and 0.01529 and 0.01363. For the same molecule, the IC50 (CypB; wild-type CypB, read-out: Wild-Type Cyclophilin Prolyl Isomerase Inhibition IC50 Values, CypB) was 0.16 µM, the “prolyl-isomerase activity” value (Cyp40; Cyp40, dose 0.0228624 µM) was 0.06439 and 0.06966 and 0.09224 and the “prolyl-isomerase activity” value (Cyp40; Cyp40, dose 0.0685871 µM) was 0.06672 and 0.05591 and 0.0674. The “prolyl-isomerase activity” value (Cyp40; Cyp40, dose 0.205761 µM) was 0.05415 and 0.04361 and 0.05573, the “prolyl-isomerase activity” value (Cyp40; Cyp40, dose 0.617284 µM) was 0.04036 and 0.03584 and 0.03686 and the “prolyl-isomerase activity” value (Cyp40; Cyp40, dose 1.85185 µM) was 0.02841 and 0.02381 and 0.02316. The “prolyl-isomerase activity” value (Cyp40; Cyp40, dose 5.55556 µM) was 0.01852 and 0.01638 and 0.01429, the “prolyl-isomerase activity” value (Cyp40; Cyp40, dose 16.6667 µM) was 0.0159 and 0.01466 and 0.0158 and the “prolyl-isomerase activity” value (Cyp40; Cyp40, dose 50 µM) was 0.01447 and 0.01343 and 0.01173. The IC50 (Cyp40; Wild-Type Cyclophilin Prolyl Isomerase Inhibition IC50 Values, Cyp40, wild-type Cyp40) was 0.26 µM, the “prolyl-isomerase activity” value (NKTR; dose 0.0457247 µM) was 0.03158 and 0.03033 and 0.03469 and the “prolyl-isomerase activity” value (NKTR; dose 0.137174 µM) was 0.03164 and 0.03314 and 0.03312. The “prolyl-isomerase activity” value (NKTR; dose 0.411523 µM) was 0.0325 and 0.0338 and 0.02719, the “prolyl-isomerase activity” value (NKTR; dose 1.23457 µM) was 0.03372 and 0.0315 and 0.03341 and the “prolyl-isomerase activity” value (NKTR; dose 3.7037 µM) was 0.03071 and 0.03218 and 0.03337. For the same molecule, the “prolyl-isomerase activity” value (NKTR; dose 11.1111 µM) was 0.03272 and 0.0287 and 0.03154, the “prolyl-isomerase activity” value (NKTR; dose 33.3333 µM) was 0.034 and 0.032 and 0.03 and the “prolyl-isomerase activity” value (NKTR; dose 100 µM) was 0.0243 and 0.0254 and 0.02366. The IC50 (NKTR; prolyl-isomerase inhibition, 5 nM cyclophilin, read-out: IC50 NKTR) was about 100 µM, the IC50 (NKTR; wild-type NKTR, read-out: Wild-Type Cyclophilin Prolyl Isomerase Inhibition IC50 Values, NKTR) was 100 µM and the “prolyl-isomerase activity” value (PPIL1; PPIL1, dose 0.0228624 µM) was 0.08321 and 0.1059 and 0.1063. The “prolyl-isomerase activity” value (PPIL1; PPIL1, dose 0.0685871 µM) was 0.0991 and 0.07246 and 0.09332, the “prolyl-isomerase activity” value (PPIL1; PPIL1, dose 0.205761 µM) was 0.0916 and 0.08667 and 0.07563 and the “prolyl-isomerase activity” value (PPIL1; PPIL1, dose 0.617284 µM) was 0.08092 and 0.07121 and 0.1066. For the same molecule, the “prolyl-isomerase activity” value (PPIL1; PPIL1, dose 1.85185 µM) was 0.07438 and 0.05377 and 0.06473, the “prolyl-isomerase activity” value (PPIL1; PPIL1, dose 5.55556 µM) was 0.04981 and 0.03892 and 0.03912 and the “prolyl-isomerase activity” value (PPIL1; PPIL1, dose 16.6667 µM) was 0.02881 and 0.02468 and 0.02483. For the same molecule, the “prolyl-isomerase activity” value (PPIL1; PPIL1, dose 50 µM) was 0.01705 and 0.01748 and 0.0139, the IC50 (PPIL1; wild-type PPIL1, read-out: Wild-Type Cyclophilin Prolyl Isomerase Inhibition IC50 Values, PPIL1) was 1.9 µM and the “prolyl-isomerase activity” value (PPWD1; PPWD1, dose 0.00976562 µM) was 0.06958 and 0.06894 and 0.06376. For the same molecule, the “prolyl-isomerase activity” value (PPWD1; PPWD1, dose 0.0195312 µM) was 0.07052 and 0.06933 and 0.06942, the “prolyl-isomerase activity” value (PPWD1; PPWD1, dose 0.0390625 µM) was 0.07199 and 0.07365 and 0.06621 and the “prolyl-isomerase activity” value (PPWD1; PPWD1, dose 0.078125 µM) was 0.0685 and 0.06494 and 0.06712. For the same molecule, the “prolyl-isomerase activity” value (PPWD1; PPWD1, dose 0.15625 µM) was 0.06342 and 0.0629 and 0.06451, the “prolyl-isomerase activity” value (PPWD1; PPWD1, dose 0.3125 µM) was 0.06089 and 0.06073 and 0.06267 and the “prolyl-isomerase activity” value (PPWD1; PPWD1, dose 0.625 µM) was 0.0549 and 0.05757 and 0.05993. For the same molecule, the “prolyl-isomerase activity” value (PPWD1; PPWD1, dose 1.25 µM) was 0.05311 and 0.05273 and 0.05312, the “prolyl-isomerase activity” value (PPWD1; PPWD1, dose 2.5 µM) was 0.04134 and 0.04153 and 0.04427 and the “prolyl-isomerase activity” value (PPWD1; PPWD1, dose 5 µM) was 0.03369 and 0.0291 and 0.03053. The “prolyl-isomerase activity” value (PPWD1; PPWD1, dose 10 µM) was 0.0224 and 0.02303 and 0.02481 and the IC50 (PPWD1; wild-type PPWD1, read-out: Wild-Type Cyclophilin Prolyl Isomerase Inhibition IC50 Values, PPWD1) was 3.2 µM.
